Laboratory results: PMC6930223 (Scientific Reports, 2019)

Key:
hERG1a = system: hERG1a; design: method as in PMID 27260674; settings: read-out: IC50 in hERG1a-injected Xenopus oocytes; cited from earlier work
hERG1a/Hsp70 complexes = test: Co-immunoprecipitation of cg-hERG1a with chaperone; type: cell-based, human; settings: 24 h
Description: (§1) The co-immunoprecipitation method was adapted and modified slightly from the previously described methodologies[40],[52]. The treated recombinant cells were incubated for 15 min at room temperature with PBS containing cross-linker 1.5 mM dithiobis (succinimidyl propionate) (DSP, Pierce USA). The cross-linker was quenched by addition of 10 mM Tris (pH 7.5) and incubated for 10 min at room temperature. Cells were detached in 10 ml ice-cold PBS and centrifuged at 300 x g for 5 min at 4 °C. The pellet was then resuspended in 300 µl ice-cold complete diluted RIPA lysis buffer containing 0.1% (v/v) NP40, 50 mM Tris pH 7.5, 150 mM NaCl, 1x PMSF solution, 1x sodium orthovanadate solution and 1x protease inhibitor cocktail solution. Subsequently, the cell suspension was incubated at 4 °C for 30 min with constant agitation and finally centrifuged at 14, 000 rpm for 10 min at 4 °C. The supernatant was saved for total protein quantitation and subsequently for co-immunoprecipitation experiments.
(§2) Briefly, 500 µg of isolated total protein was mixed with 2 µg of hERG1 rabbit polyclonal IgG (Santa Cruz Biotechnology Inc., USA), mouse Hsp70/Hsc70 monoclonal antibody (Santa Cruz Biotechnology Inc., USA) or mouse Hsp90α/β monoclonal antibody (Santa-Cruz Biotechnology Inc., USA) respectively and incubated on ice on a rotary shaker overnight. Subsequently, 30 µl of protein A/G PLUS-agarose immunoprecipitation reagent (Santa Cruz Biotechnology Inc., USA) was added into the mixture, and incubated on ice on a shaker for 8 h and subsequently stored in 4 °C overnight. The mixture was centrifuged at 1500 rpm for 5 min at 4 °C, and the pellet was washed with ice-cold PBST, each time repeating the centrifugation process. Finally, the pellet was resuspended in 25 µl 1x Laemmli sample buffer (Bio-Rad Laboratories Inc., USA) with 2.5% (v/v) β-mercaptoethanol, and then heated at 70 °C for 2 h to reverse cross-linking and to release the immunoprecipitated protein from A/G PLUS-agarose beads. The samples were centrifuged at 1500 rpm for 5 min at 4 °C to pellet the agarose beads and 20 µl of the supernatant was used for subsequent SDS-PAGE and immunoblotting analysis as described previously.
(§3) To analyze the immunoprecipitated proteins, the membrane was probed with rabbit anti-potassium channel Kv11.1 extracellular antibody (1:200) (Sigma-Aldrich, USA), mouse Hsp70/Hsc70 monoclonal antibody (1:10, 000) and mouse Hsp90α/β monoclonal antibody (1:10, 000) in the same container. […] To quantify hERG1/chaperone interactions, image densities of the core-glycosylated (cg) hERG1 protein found in immunoprecipitations with anti-hERG1 antibody were used as a measure of total hERG1a protein present. […]

hERG1a/Hsp90 complexes = test: Co-immunoprecipitation of cg-hERG1a with chaperone; type: cell-based, human; settings: 10 µM, 24 h, vs untreated control
Description: as §1, §2, §3

Substance: mitragynine
- IC50 (hERG1a): 1030 nM
- association of hERG1a/Hsp70 (hERG1a/Hsp70 complexes; 1 µM): not significantly affected
- association of hERG1a/Hsp70 (hERG1a/Hsp70 complexes; 10 μM): not significantly affected
- relative expression of hERG1a/Hsp90 complexes (hERG1a/Hsp90 complexes): significantly increased
- up-regulation of hERG1a interacting with Hsp90 (hERG1a/Hsp90 complexes): approximately 2.5 fold
